Reference: article PMC3521580 (Journal of medicinal chemistry, 2011)
Read-outs that look alike come from different tables or passages of the source. Non-standard residues stand in square brackets, D forms with d. Residues, ends and D or L forms follow the SMILES beside them. *: point of attachment. X1 = CC(=O)NCCCC(CCCNC(C)=O)(NC(=O)CNC(=O)Cn1cc(CCC(=O)*)nn1)C(=O)NCCC(N)=O

Experiments:
human MC4R [1] = target: T1, human MC4R (Homo sapiens, UniProt P32245); assay: Time resolved fluorescence competition binding assay against Eu-NDP-α-MSH; conditions: for Relative potency to Ac-MSH(4): Table 2
T1 sequence (P32245 whole entry): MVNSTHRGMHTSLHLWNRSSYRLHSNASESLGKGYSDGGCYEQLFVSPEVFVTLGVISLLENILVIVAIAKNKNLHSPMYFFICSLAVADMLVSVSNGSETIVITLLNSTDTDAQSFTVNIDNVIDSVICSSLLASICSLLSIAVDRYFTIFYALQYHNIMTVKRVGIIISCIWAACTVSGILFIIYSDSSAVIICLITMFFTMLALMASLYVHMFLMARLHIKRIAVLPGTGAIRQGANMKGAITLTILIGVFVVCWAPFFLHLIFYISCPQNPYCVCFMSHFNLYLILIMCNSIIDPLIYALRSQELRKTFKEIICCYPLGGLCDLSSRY

human MC4R [2] = target: T1, human MC4R; assay: cAMP biological response chemiluminescent immunoassay in Hek293/hMC4R cells; assay type: cell-based; conditions: hMC4R cells, result in words

| Compound | IC50 (human MC4R [1]) [nM] | Relative potency to Ac-MSH(4) (human MC4R [1]; ratio of IC50 values, fold) | Relative potency to NB397 (human MC4R [1]; Table 3, ratio of IC50 values, fold) | cAMP production, agonist activity at MC4R (human MC4R [2]) | IC50 (human MC4R [1]; IC50, MC4R binding affinity as quoted in the text) [nM] |
| --- | --- | --- | --- | --- | --- |
| CC(=O)N[C@@H](CCCCNC(=O)CCc1cn(CC(=O)NCC(=O)N2CCC[C@H]2C(=O)NCC(=O)N2CCC[C@H]2C(=O)NCC(=O)NCCCC(CCCNC(=O)CNC(=O)[C@@H]2CCCN2C(=O)CNC(=O)[C@@H]2CCCN2C(=O)CNC(=O)Cn2cc(CCC(=O)NCCCC[C@H](NC(C)=O)C(=O)N[C@@H](Cc3c[nH]cn3)C(=O)N[C@H](Cc3ccccc3)C(=O)N[C@@H](CCCNC(=N)N)C(=O)N[C@@H](Cc3c[nH]c4ccccc34)C(N)=O)nn2)(NC(=O)CNC(=O)CNC(=O)[C@@H]2CCCN2C(=O)CNC(=O)[C@@H]2CCCN2C(=O)CNC(=O)Cn2cc(CCC(=O)NCCCC[C@H](NC(C)=O)C(=O)N[C@@H](Cc3c[nH]cn3)C(=O)N[C@H](Cc3ccccc3)C(=O)N[C@@H](CCCNC(=N)N)C(=O)N[C@@H](Cc3c[nH]c4ccccc34)C(N)=O)nn2)C(=O)NCCC(N)=O)nn1)C(=O)N[C@@H](Cc1c[nH]cn1)C(=O)N[C@H](Cc1ccccc1)C(=O)N[C@@H](CCCNC(=N)N)C(=O)N[C@@H](Cc1c[nH]c2ccccc12)C(N)=O (stereo partly shown) [NB299] | 410 ± 70 | 11 | – | – | – |
| CC(=O)N[C@@H](CCCCNC(=O)CCc1cn(CC(=O)NCC(=O)N2CCC[C@H]2C(=O)NCC(=O)NCCCC(CCCNC(=O)CNC(=O)[C@@H]2CCCN2C(=O)CNC(=O)Cn2cc(CCC(=O)NCCCC[C@H](NC(C)=O)C(=O)N[C@@H](Cc3c[nH]cn3)C(=O)N[C@H](Cc3ccccc3)C(=O)N[C@@H](CCCNC(=N)N)C(=O)N[C@@H](Cc3c[nH]c4ccccc34)C(N)=O)nn2)(NC(=O)CNC(=O)CNC(=O)[C@@H]2CCCN2C(=O)CNC(=O)Cn2cc(CCC(=O)NCCCC[C@H](NC(C)=O)C(=O)N[C@@H](Cc3c[nH]cn3)C(=O)N[C@H](Cc3ccccc3)C(=O)N[C@@H](CCCNC(=N)N)C(=O)N[C@@H](Cc3c[nH]c4ccccc34)C(N)=O)nn2)C(=O)NCCC(N)=O)nn1)C(=O)N[C@@H](Cc1c[nH]cn1)C(=O)N[C@H](Cc1ccccc1)C(=O)N[C@@H](CCCNC(=N)N)C(=O)N[C@@H](Cc1c[nH]c2ccccc12)C(N)=O (stereo partly shown) [NB298] | 220 ± 59 | 21 | – | – | – |
| CC(=O)N[C@@H](CCCCNC(=O)CCc1cn(CC(=O)NCC(=O)N2CCC[C@H]2C(=O)NCC(=O)N2CCC[C@H]2C(=O)NCC(=O)N2CCC[C@H]2C(=O)NCC(=O)NCCCC(CCCNC(=O)CNC(=O)[C@@H]2CCCN2C(=O)CNC(=O)[C@@H]2CCCN2C(=O)CNC(=O)[C@@H]2CCCN2C(=O)CNC(=O)Cn2cc(CCC(=O)NCCCC[C@H](NC(C)=O)C(=O)N[C@@H](Cc3c[nH]cn3)C(=O)N[C@H](Cc3ccccc3)C(=O)N[C@@H](CCCNC(=N)N)C(=O)N[C@@H](Cc3c[nH]c4ccccc34)C(N)=O)nn2)(NC(=O)CNC(=O)CNC(=O)[C@@H]2CCCN2C(=O)CNC(=O)[C@@H]2CCCN2C(=O)CNC(=O)[C@@H]2CCCN2C(=O)CNC(=O)Cn2cc(CCC(=O)NCCCC[C@H](NC(C)=O)C(=O)N[C@@H](Cc3c[nH]cn3)C(=O)N[C@H](Cc3ccccc3)C(=O)N[C@@H](CCCNC(=N)N)C(=O)N[C@@H](Cc3c[nH]c4ccccc34)C(N)=O)nn2)C(=O)NCCC(N)=O)nn1)C(=O)N[C@@H](Cc1c[nH]cn1)C(=O)N[C@H](Cc1ccccc1)C(=O)N[C@@H](CCCNC(=N)N)C(=O)N[C@@H](Cc1c[nH]c2ccccc12)C(N)=O (stereo partly shown) [NB300] | 620 ± 51 | 7 | – | – | – |
| CC(=O)NCC(=O)NC(CCCNC(=O)Cn1cc(CCC(=O)NCCCC[C@H](NC(C)=O)C(=O)N[C@@H](Cc2c[nH]cn2)C(=O)N[C@H](Cc2ccccc2)C(=O)N[C@@H](CCCNC(=N)N)C(=O)N[C@@H](Cc2c[nH]c3ccccc23)C(N)=O)nn1)(CCCNC(=O)Cn1cc(CCC(=O)NCCCC[C@H](NC(C)=O)C(=O)N[C@@H](Cc2c[nH]cn2)C(=O)N[C@H](Cc2ccccc2)C(=O)N[C@@H](CCCNC(=N)N)C(=O)N[C@@H](Cc2c[nH]c3ccccc23)C(N)=O)nn1)C(=O)NCCC(N)=O (stereo partly shown) [NB399] | – | – | 16 | agonists | – |
| CC(=O)N[C@@H](CCCCNC(=O)CCc1cn(CC(=O)NCCC(=O)NCCC(=O)NCCCC(CCCNC(=O)CCNC(=O)CCNC(=O)Cn2cc(CCC(=O)NCCCC[C@H](NC(C)=O)C(=O)N[C@@H](Cc3c[nH]cn3)C(=O)N[C@H](Cc3ccccc3)C(=O)N[C@@H](CCCNC(=N)N)C(=O)N[C@@H](Cc3c[nH]c4ccccc34)C(N)=O)nn2)(NC(=O)CNC(=O)CCNC(=O)CCNC(=O)Cn2cc(CCC(=O)NCCCC[C@H](NC(C)=O)C(=O)N[C@@H](Cc3c[nH]cn3)C(=O)N[C@H](Cc3ccccc3)C(=O)N[C@@H](CCCNC(=N)N)C(=O)N[C@@H](Cc3c[nH]c4ccccc34)C(N)=O)nn2)C(=O)NCCC(N)=O)nn1)C(=O)N[C@@H](Cc1c[nH]cn1)C(=O)N[C@H](Cc1ccccc1)C(=O)N[C@@H](CCCNC(=N)N)C(=O)N[C@@H](Cc1c[nH]c2ccccc12)C(N)=O (stereo partly shown) [NB302] | 120 ± 10 | 38 | – | – | – |
| CC(=O)N[C@@H](CCCCNC(=O)CCc1cn(CC(=O)NCCC(=O)NCCCC(CCCNC(=O)CCNC(=O)Cn2cc(CCC(=O)NCCCC[C@H](NC(C)=O)C(=O)N[C@@H](Cc3c[nH]cn3)C(=O)N[C@H](Cc3ccccc3)C(=O)N[C@@H](CCCNC(=N)N)C(=O)N[C@@H](Cc3c[nH]c4ccccc34)C(N)=O)nn2)(NC(=O)CNC(=O)CCNC(=O)Cn2cc(CCC(=O)NCCCC[C@H](NC(C)=O)C(=O)N[C@@H](Cc3c[nH]cn3)C(=O)N[C@H](Cc3ccccc3)C(=O)N[C@@H](CCCNC(=N)N)C(=O)N[C@@H](Cc3c[nH]c4ccccc34)C(N)=O)nn2)C(=O)NCCC(N)=O)nn1)C(=O)N[C@@H](Cc1c[nH]cn1)C(=O)N[C@H](Cc1ccccc1)C(=O)N[C@@H](CCCNC(=N)N)C(=O)N[C@@H](Cc1c[nH]c2ccccc12)C(N)=O (stereo partly shown) [NB301] | 88 ± 12 | 52 | – | – | – |
| CC(=O)N[C@@H](CCCCNC(=O)CCc1cn(CC(=O)NCCCC(CCCNC(=O)Cn2cc(CCC(=O)NCCCC[C@H](NC(C)=O)C(=O)N[C@@H](Cc3c[nH]cn3)C(=O)N[C@H](Cc3ccccc3)C(=O)N[C@@H](CCCNC(=N)N)C(=O)N[C@@H](Cc3c[nH]c4ccccc34)C(N)=O)nn2)(NC(=O)CNC(=O)Cn2cc(CCC(=O)NCCCC[C@H](NC(C)=O)C(=O)N[C@@H](Cc3c[nH]cn3)C(=O)N[C@H](Cc3ccccc3)C(=O)N[C@@H](CCCNC(=N)N)C(=O)N[C@@H](Cc3c[nH]c4ccccc34)C(N)=O)nn2)C(=O)NCCC(N)=O)nn1)C(=O)N[C@@H](Cc1c[nH]cn1)C(=O)N[C@H](Cc1ccccc1)C(=O)N[C@@H](CCCNC(=N)N)C(=O)N[C@@H](Cc1c[nH]c2ccccc12)C(N)=O (stereo partly shown) [NB297] | 71 ± 5.3 | 64 | – | – | ~72 |
| CC(=O)NCCCC(CCCNC(C)=O)(NC(=O)CNC(=O)Cn1cc(CCC(=O)NCCCC[C@H](NC(C)=O)C(=O)N[C@@H](Cc2c[nH]cn2)C(=O)N[C@H](Cc2ccccc2)C(=O)N[C@@H](CCCNC(=N)N)C(=O)N[C@@H](Cc2c[nH]c3ccccc23)C(N)=O)nn1)C(=O)NCCC(N)=O [NB397] (Ac-K(X1)H[dF]RW-NH2; N-terminus assumed) | – | – | – | agonists | – |
